Reference: patent US12595230B2, “Substituted 6,7-dihydro-5H-benzo[7]annulene compounds and their derivatives, processes for their preparation and therapeutic uses thereof” (Sanofi, priority 2020, dated 2026)

Target: T1, ERα (Homo sapiens, UniProt P03372)
T1 construct: host or cells: MCF7
T1 sequence (P03372 1-595): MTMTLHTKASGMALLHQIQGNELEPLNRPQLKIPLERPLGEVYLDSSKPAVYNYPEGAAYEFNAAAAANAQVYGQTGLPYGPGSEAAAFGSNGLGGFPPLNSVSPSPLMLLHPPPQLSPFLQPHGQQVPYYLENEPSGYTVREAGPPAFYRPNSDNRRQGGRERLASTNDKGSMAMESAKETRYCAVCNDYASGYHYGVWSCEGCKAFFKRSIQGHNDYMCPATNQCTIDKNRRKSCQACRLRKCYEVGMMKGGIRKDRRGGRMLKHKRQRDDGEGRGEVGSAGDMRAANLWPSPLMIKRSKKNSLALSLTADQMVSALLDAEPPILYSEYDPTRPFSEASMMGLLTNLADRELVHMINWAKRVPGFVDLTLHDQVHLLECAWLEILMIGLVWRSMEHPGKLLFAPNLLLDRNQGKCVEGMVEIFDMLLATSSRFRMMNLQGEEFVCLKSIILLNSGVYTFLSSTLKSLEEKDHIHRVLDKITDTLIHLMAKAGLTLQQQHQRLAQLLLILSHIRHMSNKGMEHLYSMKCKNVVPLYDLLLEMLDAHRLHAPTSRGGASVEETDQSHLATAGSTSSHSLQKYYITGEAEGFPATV
Experiment: Estrogen receptor degradation activity: breast cancer cell ERα in cell western assay (MCF7 cells)
Type: cell-based
Conditions: for % Degradation At 0.3 μM: 4 hours, relative to fulvestrant 0.1 μM positive control; for DC50: 4 hours post compound addition, concentration which degrades 50% of the estrogen receptor, read-out: Degradation IC50
Outline: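 Compounds were applied to MCF7 cells in stripped-serum, phenol red-free medium for 4 h at final 0.3–0.0000018 μM, with fulvestrant (0.1 μM) as control. Value: IC50 (nM) for 50% ERα degradation.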

With CC1CCc2cc(C(=O)O)ccc2C(c2ccc(CC3CN(CCCF)C3)cc2)=C1c1ccc(Cl)cc1 (single isomer, unassigned) [Example 327, 8-(4-chlorophenyl)-9-(4-((1-(3-fluoropropyl)azetidin-3-yl)methyl)phenyl)-7-methyl-6,7-dihydro-5H-benzo[7]annulene-3-carboxylic acid] the “% Degradation At 0.3 μM” value was 86% and the DC50 was 4.7 nM.
In the case of O=C(O)c1ccc2c(c1)CCCC(c1c(F)cccc1Cl)=C2c1ccc(CC2CN(CCCF)C2)cc1 [Example 220, 8-(2-chloro-6-fluorophenyl)-9-(4-((1-(3-fluoropropyl)azetidin-3-yl)methyl)phenyl)-6,7-dihydro-5H-benzo[7]annulene-3-carboxylic acid], the “% Degradation At 0.3 μM” value is reported as 87% and the DC50 is reported as 0.3 nM.
With O=C(O)c1ccc2c(c1)CCCC(c1ccc(Cl)cc1Cl)=C2c1ccc(C(F)C2CN(CCCF)C2)cc1 (single isomer, unassigned) [Example 43, 8-(2,4-dichlorophenyl)-9-(4-(fluoro(1-(3-fluoropropyl)azetidin-3-yl)methyl)phenyl)-6,7-dihydro-5H-benzo[7]annulene-3-carboxylic acid] the “% Degradation At 0.3 μM” value was 90% and the DC50 was 0.4 nM.
For Cl.O=C(O)c1ccc2c(c1)CCCC(c1c(F)cc(F)cc1C(F)F)=C2c1ccc(CC2CN(CCCF)C2)cc1 [Example 284, 8-(2-(difluoromethyl)-4,6-difluorophenyl)-9-(4-((1-(3-fluoropropyl)azetidin-3-yl)methyl)phenyl)-6,7-dihydro-5H-benzo[7]annulene-3-carboxylic acid hydrochloride], the “% Degradation At 0.3 μM” value was 96% and the DC50 was 0.3 nM.
With Cl.O=C(O)c1ccc2c(c1)CCCC(c1ccc(Cl)cc1F)=C2c1ccc(CC2CN(CCCF)C2)cc1 [Example 12, 8-(4-chloro-2-fluorophenyl)-9-(4-((1-(3-fluoropropyl)azetidin-3-yl)methyl)phenyl)-6,7-dihydro-5H-benzo[7]annulene-3-carboxylic acid] the “% Degradation At 0.3 μM” value was 93% and the DC50 was 0.4 nM.
For Cc1c(F)cccc1C1=C(c2ccc(CC3CN(CCCF)C3)cc2)c2ccc(C(=O)O)cc2CCC1 [Example 28, 8-(3-fluoro-2-methylphenyl)-9-(4-((1-(3-fluoropropyl)azetidin-3-yl)methyl)phenyl)-6,7-dihydro-5H-benzo[7]annulene-3-carboxylic acid], the “% Degradation At 0.3 μM” value was 93% and the DC50 was 0.4 nM.
O=C(O)c1ccc2c(c1)CCCC(c1ccc(F)c(F)c1)=C2c1ccc(CC2CN(CCCF)C2)cc1 [Example 45, 8-(3,4-difluorophenyl)-9-(4-((1-(3-fluoropropyl)azetidin-3-yl)methyl)phenyl)-6,7-dihydro-5H-benzo[7]annulene-3-carboxylic acid] was tested, and the “% Degradation At 0.3 μM” value was 86% and the DC50 was 0.3 nM.
For Cc1cc(Cl)ccc1C1=C(c2ccc(CC3CN(CCC(F)F)C3)cc2)c2ccc(C(=O)O)cc2CCC1 [Example 282, 8-(4-chloro-2-methylphenyl)-9-(4-((1-(3,3-difluoropropyl)azetidin-3-yl)methyl)phenyl)-6,7-dihydro-5H-benzo[7]annulene-3-carboxylic acid], the “% Degradation At 0.3 μM” value was 86% and the DC50 was 0.4 nM.
O=C(O)c1ccc2c(c1)CCCC(c1ccc(F)cc1F)=C2c1ccc(CC2CN(CCC(F)F)C2)cc1 [Example 281, 8-(2,4-difluorophenyl)-9-(4-((1-(3,3-difluoropropyl)azetidin-3-yl)methyl)phenyl)-6,7-dihydro-5H-benzo[7]annulene-3-carboxylic acid] was tested, and the “% Degradation At 0.3 μM” value was 84% and the DC50 was 0.4 nM.
With COc1c(C(=O)O)ccc2c1CCCC(c1ccc(F)cc1C)=C2c1ccc(CC2CN(CCCF)C2)cc1 [Example 269, 8-(4-fluoro-2-methylphenyl)-9-(4-((1-(3-fluoropropyl)azetidin-3-yl)methyl)phenyl)-4-methoxy-6,7-dihydro-5H-benzo[7]annulene-3-carboxylic acid] the “% Degradation At 0.3 μM” value was 100% and the DC50 was 180 nM.
Cc1c(Cl)cccc1C1=C(c2ccc(CC3CN(CCC(F)(F)F)C3)cc2)c2ccc(C(=O)O)cc2CCC1 [Example 260, 8-(3-chloro-2-methylphenyl)-9-(4-((1-(3,3,3-trifluoropropyl)azetidin-3-yl)methyl)phenyl)-6,7-dihydro-5H-benzo[7]annulene-3-carboxylic acid] was tested, and the “% Degradation At 0.3 μM” value was 86% and the DC50 was 0.6 nM.
O=C(O)c1ccc2c(c1)CCCC(c1nc(Cl)ccc1C(F)(F)F)=C2c1ccc(CC2CN(CCCF)C2)cc1 [Example 300, 8-(6-chloro-3-(trifluoromethyl)pyridin-2-yl)-9-(4-((1-(3-fluoropropyl)azetidin-3-yl)methyl)phenyl)-6,7-dihydro-5H-benzo[7]annulene-3-carboxylic acid] was tested, and the “% Degradation At 0.3 μM” value was 88% and the DC50 was 11.2 nM.
O=C(O)c1ccc2c(c1)CCCC(c1ncc(Cl)cc1C(F)(F)F)=C2c1ccc(CC2CN(CCCF)C2)cc1 [Example 218, 8-(5-chloro-3-(trifluoromethyl)pyridin-2-yl)-9-(4-((1-(3-fluoropropyl)azetidin-3-yl)methyl)phenyl)-6,7-dihydro-5H-benzo[7]annulene-3-carboxylic acid] was tested, and the “% Degradation At 0.3 μM” value was 92% and the DC50 was 0.5 nM.
For O=C(O)c1ccc2c(c1)CCCC(c1ccccc1C(F)(F)F)=C2c1ccc(CC2CN(CCCF)C2)cc1 [Example 23, 9-(4-((1-(3-fluoropropyl)azetidin-3-yl)methyl)phenyl)-8-(2-(trifluoromethyl)phenyl)-6,7-dihydro-5H-benzo[7]annulene-3-carboxylic acid], the “% Degradation At 0.3 μM” value was 91% and the DC50 was 0.2 nM.
In the case of O=C(O)c1ccc2c(c1)CCCC(c1ccc(Cl)cc1Cl)=C2c1ccc(CC2CN(CCCF)C2)cn1 [Example 253, 8-(2,4-dichlorophenyl)-9-(5-((1-(3-fluoropropyl)azetidin-3-yl)methyl)pyridin-2-yl)-6,7-dihydro-5H-benzo[7]annulene-3-carboxylic Acid], the “% Degradation At 0.3 μM” value is reported as 89% and the DC50 is reported as 4 nM.
With Cl.O=C(O)c1ccc2c(c1)CCC(c1ccc(Cl)cc1Cl)=C2c1ccc(CC2CN(CCCF)C2)cc1 [Example 262, 6-(2,4-Dichlorophenyl)-5-(4-((1-(3-fluoropropyl)azetidin-3-yl)methyl)phenyl)-7,8-dihydronaphthalene-2-carboxylic Acid Hydrochloride] the “% Degradation At 0.3 μM” value was 91% and the DC50 was 1.6 nM.
In the case of O=C(O)c1ccc2c(c1)CCCC(c1cccc(CCO)c1)=C2c1ccc(CC2CN(CCCF)C2)cc1 [Example 319, 9-(4-((1-(3-fluoropropyl)azetidin-3-yl)methyl)phenyl)-8-(3-(2-hydroxyethyl)phenyl)-6,7-dihydro-5H-benzo[7]annulene-3-carboxylic acid], the “% Degradation At 0.3 μM” value is reported as 73% and the DC50 is reported as 48 nM.
For CC(C)CC1=C(c2ccc(CC3CN(CCCF)C3)cc2)c2ccc(C(=O)O)cc2CCC1 [Example 37, 9-(4-((1-(3-fluoropropyl)azetidin-3-yl)methyl)phenyl)-8-isobutyl-6,7-dihydro-5H-benzo[7]annulene-3-carboxylic acid], the “% Degradation At 0.3 μM” value was 87% and the DC50 was 0.4 nM.
In the case of O=C(O)c1ccc2c(c1)CCCC(c1ccc(Cl)cc1Cl)=C2c1ccc(CC2CN(CCCF)C2)cc1 [Example 2, 8-(2,4-dichlorophenyl)-9-(4-((1-(3-fluoropropyl)azetidin-3-yl)methyl)phenyl)-6,7-dihydro-5H-benzo[7]annulene-3-carboxylic Acid], the “% Degradation At 0.3 μM” value is reported as 91% and the DC50 is reported as 0.3 nM.
